Assay results: the supplement of paper PMC10307832

Assays:
Test in all cases: relative viability (nuclei count vs DMSO), 5 days (fraction); higher = more cells survive
[1] = compound: C1=CC=C2C(=C1)N=C(S2)C(C#N)C3=NC(=NC=C3)NCCC4=CN=CC=C4 + C[C@@H](Oc1cc(-c2cnn(C3CCNCC3)c2)cnc1N)c1c(Cl)ccc(F)c1Cl [Crizotinib] (partner 1 µM)
How it was run: (§1)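 Relative viability equals treated-well nuclei counts divided by vehicle-well nuclei counts. Counts came from 4× images of lung cancer cell lines grown in 1536-well plates for 5 days after pin-tool dosing on the day after seeding. Dosing used one drug alone or a fixed anchor-drug dose plus five library-drug doses (not always all listed) in √10 steps, and values are medians of duplicate plates.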

[2] = compound: COc1cc(N2CCC(N3CCN(C)CC3)CC2)ccc1Nc1ncc(Cl)c(Nc2ccccc2S(=O)(=O)C(C)C)n1 [NVP-TAE684] + NC(=O)Nc1cc(-c2cccc(F)c2)sc1C(=O)N[C@H]1CCCNC1 [AZD7762] (partner 0.2 µM)
How it was run: as §1

[3] = compound: COc1cc(N2CCC(N3CCN(C)CC3)CC2)ccc1Nc1ncc(Cl)c(Nc2ccccc2S(=O)(=O)C(C)C)n1 [NVP-TAE684] + CCNC(=O)c1noc(-c2cc(C(C)C)c(O)cc2O)c1-c1ccc(CN2CCOCC2)cc1 [Luminespib] (partner 0.01 µM)
How it was run: as §1

[4] = compound: C#Cc1cccc(Nc2ncnc3cc(OC)c(OCCCCCCC(=O)NO)cc23)c1 [CUDC-101] + Cc1nc(NC(=O)N2CCC[C@H]2C(N)=O)sc1-c1ccnc(C(C)(C)C(F)(F)F)c1 [Alpelisib] (partner 2 µM)
How it was run: as §1

[5] = compound: COc1cc(N2CCC(N3CCN(C)CC3)CC2)ccc1Nc1ncc(Cl)c(Nc2ccccc2S(=O)(=O)C(C)C)n1 [NVP-TAE684] + C[C@]1(O)C[C@@H](c2nc(-c3ccc4ccc(-c5ccccc5)nc4c3)c3c(N)nccn32)C1 [Linsitinib] (partner 1 µM)
How it was run: as §1

Row | Cell Line | relative viability ([1]; first compound 0.005 µM) | relative viability ([1]; first compound 0.05 µM) | relative viability ([1]; first compound 0.1581 µM) | relative viability ([1]; first compound 0.5 µM) | relative viability ([2]; first compound 0.2 µM) | relative viability ([2]; first compound 0.6325 µM) | relative viability ([3]; first compound 0.2 µM) | relative viability ([3]; first compound 0.6325 µM) | relative viability ([3]; first compound 2 µM) | relative viability ([1]; first compound 0.01581 µM) | relative viability ([4]; first compound 0.01 µM) | relative viability ([4]; first compound 0.03162 µM) | relative viability ([4]; first compound 0.1 µM) | relative viability ([4]; first compound 0.3162 µM) | relative viability ([4]; first compound 1 µM) | relative viability ([5]; first compound 0.2 µM) | relative viability ([5]; first compound 0.6325 µM) | relative viability ([5]; first compound 2 µM) | relative viability ([2]; first compound 2 µM)
1 | ChaGo-K-1 | 0.761 | 1.2 | 1.29 | 1.02 | 1.02 | 0.836 | 0.661 | 0.67 | 0.44 |  |  |  |  |  |  |  |  |  | 
2 | EBC-1 | 0.236 | 0.189 | 0.224 | 0.22 |  |  |  |  |  | 0.172 | 0.796 | 0.709 | 0.696 | 0.721 | 0.319 | 0.784 | 0.785 | 0.745 | 
3 | EKVX | 0.775 | 0.986 | 0.895 | 0.573 | 0.634 | 0.677 | 0.877 | 0.913 | 0.754 | 1.03 | 0.833 | 0.817 | 0.849 | 1.03 | 0.682 | 0.896 | 0.897 | 0.709 | 0.375
4 | EMC-BAC-2 | 0.645 | 0.704 | 0.766 | 0.581 | 1.12 |  |  | 1.21 | 0.824 | 0.769 | 0.759 | 0.737 | 0.757 | 0.741 | 0.499 | 0.771 |  | 0.51 | 0.536
5 | EPLC-272H | 0.852 | 0.868 | 0.94 | 0.795 | 0.175 | 0.175 | 0.185 | 0.382 | 0.217 | 0.97 | 0.985 | 0.887 | 0.92 | 0.926 | 0.845 | 1.08 |  | 1.3 | 0.208
6 | H3255 | 0.722 | 0.911 | 0.937 | 0.824 | 0.939 | 0.823 | 0.897 | 0.828 | 0.765 | 0.811 | 0.71 | 0.552 | 0.177 | 0.375 | 0.136 | 0.903 | 0.927 | 0.69 | 0.881
7 | HARA | 0.928 | 0.957 | 1.22 | 0.978 | 0.305 | 0.286 | 0.991 | 0.517 | 0.389 | 1.11 | 0.752 | 0.661 | 0.583 | 0.54 | 0.225 | 0.985 | 0.929 | 0.474 | 0.258
8 | HCC-15 | 0.734 | 0.833 | 1.02 | 0.776 | 1.11 | 1.36 | 0.241 | 0.271 | 0.232 | 0.851 | 0.875 | 0.888 | 0.909 | 0.909 | 0.763 | 0.84 | 0.866 | 0.601 | 0.806
9 | HCC-44 | 0.753 | 0.826 | 0.875 | 0.69 | 1.03 | 1.08 |  | 0.912 | 0.272 | 0.837 | 0.641 | 0.664 | 0.771 | 0.781 | 0.685 | 0.785 | 0.674 | 0.482 | 1.03
